Assay results as given in patent publication US20250059166A1, “PIPERIDINYLPYRIDINYLCARBONITRILE DERIVATIVES AS INHIBITORS OF GLUTAMINYL-PEPTIDE CYCLOTRANSFERASE AND GLUTAMINYL-PEPTIDE CYCLOTRANSFERASE LIKE PROTEIN” (Boehringer Ingelheim International GmbH, priority 2023, published 2025).
Read-outs that look alike come from different tables or passages of the source.

Columns and labels:
QPCTL = target: T1, QPCTL (Homo sapiens, UniProt Q9NXS2); assay: Assay A: biochemical QPCTL activity assay (MALDI-TOF MS, CD47 peptide substrate); settings: compounds of the invention; 0.5 nM enzyme, 10 μM CD47 peptide substrate; read-out: Inhibition of QPCTL: IC50
T1 construct: made in house
T1 sequence (Q9NXS2 whole entry): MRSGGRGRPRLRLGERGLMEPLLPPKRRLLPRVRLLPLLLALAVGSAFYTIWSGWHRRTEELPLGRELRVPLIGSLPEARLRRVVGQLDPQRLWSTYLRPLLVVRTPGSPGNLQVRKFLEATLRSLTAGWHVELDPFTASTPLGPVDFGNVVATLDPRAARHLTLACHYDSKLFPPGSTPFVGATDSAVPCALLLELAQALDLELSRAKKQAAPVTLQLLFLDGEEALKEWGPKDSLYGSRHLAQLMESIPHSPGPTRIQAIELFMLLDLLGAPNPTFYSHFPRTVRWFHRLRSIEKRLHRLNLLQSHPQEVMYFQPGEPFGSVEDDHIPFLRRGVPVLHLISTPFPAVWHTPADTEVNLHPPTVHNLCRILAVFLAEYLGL
Method: (§1) QPCT or QPCTL dependent conversion of N-terminal glutamine to pyroglutamate of CD47 was monitored via MALDI-TOF MS. Test compounds were dissolved in 100% DMSO and serially diluted into clear 1,536-well microtiter plates. Enzymatic reactions were set up in assay buffer containing 20 mM Tris pH 7.5, 0.1 mM TCEP, 0.01% BSA, and 0.001% Tween20. […] The plates were incubated for 10 min in a humidified incubator at 24° C. Subsequently, 2.5 μL of CD47 peptide substrate surrogate (^19[…]^33) was added to each well (final concentration: 10 μM for QPCTL/20 μM for QPCT). The plates were mixed for 30 sec at 1,000 rpm and subsequently incubated for 40 min in a humidified incubator at 24° C. […] The plates were sealed with an adhesive foil, mixed for 30 s at 1,000 rpm and stored at room temperature until preparation of the MALDI target plates. […] QPCT or QPCTL activity was monitored by calculating the ratio between product and internal standard signals followed by normalization to high (100% activity) and low (0% activity) controls. Determination of compound potencies was obtained by fitting the dose-response data to a four-parameter logistical equation.

QPCT = target: T2, QPCT (Homo sapiens, UniProt Q16769); assay: Assay A: biochemical QPCT activity assay (MALDI-TOF MS, CD47 peptide substrate); settings: compounds of the invention; 0.5 nM enzyme, 20 μM CD47 peptide substrate; read-out: Inhibition of QPCT: IC50
T2 construct: purchased Origine (so in the source)
T2 sequence (Q16769 29-361): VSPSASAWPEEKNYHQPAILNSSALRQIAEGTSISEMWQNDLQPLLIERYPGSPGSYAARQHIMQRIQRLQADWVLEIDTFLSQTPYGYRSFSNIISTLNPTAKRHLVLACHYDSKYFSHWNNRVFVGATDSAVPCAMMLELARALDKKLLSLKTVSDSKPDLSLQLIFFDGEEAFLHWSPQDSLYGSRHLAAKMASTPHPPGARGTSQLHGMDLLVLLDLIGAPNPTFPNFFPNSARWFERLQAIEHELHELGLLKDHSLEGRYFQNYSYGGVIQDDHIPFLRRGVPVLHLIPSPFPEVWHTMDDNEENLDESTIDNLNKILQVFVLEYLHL
Method: as §1

[1] = tested on: SIRPα signalling induced by Raji cells; assay: Assay B: SIRPα signalling assay using Raji cells; assay type: cell-based; settings: Homo sapiens, read-out: Inhibition of SIRPα signalling induced by Raji cells: IC50
Method: (§2) Two cell types are independently used: the Raji cell line (lymphoblast-like human cell line derived from B lymphocytes from a Burkitt's lymphoma patient in 1963) and A549 cells (adenocarcinoma human alveolar basal epithelial cells).
(§3) Test compounds were dissolved in 100% DMSO and serially diluted into a white 384-well microtiter cell culture plate (PerkinElmer #60076780 in case of Raji assay; PDL-coated plates Greiner #781945 in case of A549 assay). 5000 Raji cells (ATCC #CC86) or 5000 A549 cells (ATCC #CCL-185) in Assay Complete Cell Plating reagent 30 (DiscoverX 93-0563R30B) were added per well. The assay plate was incubated for 48 h at 37° C., 95% humidity and 5% CO2. 15000 reporter cells (Jurkat PathHunter SIRPαV1, DiscoverX #93-1135C19) were added to each well, and the plate was incubated for 5 h at 37° C., 95% humidity and 5% CO2. Bioassay reagent 1 of the PathHunter Bioassay detection kit (DiscoverX 93-0001) was added to each well of the plate using a multichannel pipette followed by a 15 min incubation at room temperature. Afterwards bioassay reagent 2 was added followed by 60 min incubation at room temperature (incubation in the dark).
(§4) The analysis of the data was performed using the luminescence signal generated by beta-galactosidase in the PathHunter reporter cell line. The luminescence measurement was done using a Pherastar Multi-Mode Reader. Dose-response curves & IC50 data were calculated with 4-parameter sigmoidal dose response formula.

[2] = tested on: SIRPα signalling induced by A549 cells; assay: Assay B: SIRPα signalling assay using A549 cells; assay type: cell-based; settings: Homo sapiens
Method: as §2, §3, §4

[3] = Assay C: permeability in CACO-2 cells; assay type: in vitro ADME; settings: human
Method: Caco-2 cells (1-2×10^5 cells/1 cm^2 area) are seeded on filter inserts (Costar transwell polycarbonate or PET filters, 0.4 μm pore size) and cultured (DMEM) for 10 to 25 days. Compounds are dissolved in appropriate solvent (like DMSO, 1-20 mM stock solutions). […] The transport solution (TL) is applied to the apical or basolateral donor side for measuring A-B or B-A permeability (3 filter replicates), respectively. Samples are collected at the start and end of experiment from the donor and at various time intervals for up to 2 hours also from the receiver side for concentration measurement by HPLC-MS/MS or scintillation counting. Sampled receiver volumes are replaced with fresh receiver solution.
Efflux ratio(ER)=permeabilityB−A/permeabilityA−B

[4] = compounds of the invention, Raji cells 48 h, Jurkat PathHunter SIRPαV1 reporter cells 5 h
[5] = compounds of the invention, A549 cells 48 h, Jurkat PathHunter SIRPαV1 reporter cells 5 h, read-out: Inhibition of SIRPα signalling induced by A549 cells: IC50
[6] = pH 7.2, compounds of the invention, Caco-2, permeability B-A / permeability A-B
[7] = compounds of the invention, Caco-2, apical to basolateral, pH 7.2

SMILES | IC50 (QPCTL) | IC50 (QPCT) | IC50 [1, 4] | IC50 [2, 5] | efflux ratio at 2 h [3, 6] | Papp A→B at 2 h [3, 7] | Papp A→B at 2 h ([3]; Caco-2, pH 7.2) | efflux ratio at 2 h ([3]; Caco-2, pH 7.2) | IC50 ([1]; prior art compounds, Raji cells 48 h, Jurkat PathHunter SIRPαV1 reporter cells 5 h) | IC50 ([2]; prior art compounds, A549 cells 48 h, Jurkat PathHunter SIRPαV1 reporter cells 5 h, read-out: Inhibition of SIRPα signalling induced by A549 cells: IC50) | IC50 ([1]; Raji) | IC50 ([2]; A549, read-out: Inhibition of SIRPα signalling induced by A549 cells: IC50)
Cn1cnnc1C1(F)CCN(c2c(C#N)cc(C(F)F)nc2-c2ccc(F)nc2)CC1 [Example 35] | 0.003 µM | 0.01 µM | 0.154 µM | 0.043 µM | 3.6 | 17 ×10⁻⁶ cm/s |  |  |  |  |  | 
Cn1cnnc1C1(F)CCN(c2c(-c3ccc(F)nc3)ncc(Cl)c2C#N)CC1 [Example 39] | 0.003 µM | 0.006 µM | 0.247 µM | 0.106 µM | 2.9 | 16 ×10⁻⁶ cm/s |  |  |  |  |  | 
Cc1cncc(-c2nccc(C#N)c2N2CCC(F)(c3nncn3C)CC2)c1 [Example 20] | 0.013 µM | 0.035 µM | 1.37 µM | 0.615 µM | 4.5 | 14 ×10⁻⁶ cm/s |  |  |  |  |  | 
Cc1cc(C#N)c(N2CCC(F)(c3nncn3C)CC2)c(-c2cnc3nn(C(C)(C)C)c(Cl)c3c2)n1 [Example 26] | < 0.001 µM | < 0.001 µM | 0.006 µM | 0.013 µM | 4.2 | 20 ×10⁻⁶ cm/s |  |  |  |  |  | 
Cn1cnnc1C1(F)CCN(c2c(C#N)cc(C(F)(F)F)nc2-c2cnc3nn(C(F)(F)F)nc3c2)CC1 [Example 9] | 0.056 µM | 0.1 µM | 0.869 µM | 0.365 µM | 1.4 | 45 ×10⁻⁶ cm/s |  |  |  |  |  | 
Cn1cnnc1C1(F)CCN(c2c(C#N)ccnc2-c2cnc3nn(C(F)(F)F)cc3c2)CC1 [Example 16] | 0.001 µM | 0.001 µM | 0.037 µM | 0.009 µM | 7.7 | 3.1 ×10⁻⁶ cm/s |  |  |  |  |  | 
Cn1cnnc1C1(F)CCN(c2c(C#N)ccnc2-c2cnc3nn(C(F)(F)F)nc3c2)CC1 [Example 18] | 0.033 µM | 0.052 µM | 0.942 µM | 0.292 µM | 2.8 | 27 ×10⁻⁶ cm/s |  |  |  |  |  | 
Cc1cc(C#N)c(N2CCC(F)(c3nncn3C)CC2)c(-c2cnc3nn(C(C)(C)C)c(C(F)(F)F)c3c2)n1 [Example 27] | 0.002 µM | 0.002 µM | 0.026 µM | 0.034 µM | 2.4 | 38 ×10⁻⁶ cm/s |  |  |  |  |  | 
Cn1cnnc1C1(F)CCN(c2c(C#N)cc(C(F)(F)F)nc2-c2cnc3nn(C(C)(C)C)cc3c2)CC1 [Example 1] | 0.001 µM | 0.001 µM | 0.009 µM | 0.017 µM | 6.4 | 5.3 ×10⁻⁶ cm/s |  |  |  |  |  | 
Cn1cnnc1C1(F)CCN(c2c(C#N)cc(C3CC3)nc2-c2cnc3nn(C(C)(C)C)cc3c2)CC1 [Example 28] | 0.001 µM | < 0.001 µM | 0.007 µM | 0.012 µM | 3.8 | 19 ×10⁻⁶ cm/s |  |  |  |  |  | 
Cn1cnnc1C1(F)CCN(c2c(C#N)cc(C(F)(F)F)nc2-c2cnc3nn(C(C)(C)C(F)(F)F)cc3c2)CC1 [Example 6] | 0.002 µM | 0.002 µM | 0.026 µM | 0.05 µM | 10.1 | 7.2 ×10⁻⁶ cm/s |  |  |  |  |  | 
Cn1cnnc1C1(F)CCN(c2c(C#N)cc(C(F)(F)F)nc2-c2cnc3nn(C(C)(C)C)c(C(F)(F)F)c3c2)CC1 [Example 4] | 0.009 µM | 0.005 µM | 0.031 µM | 0.046 µM | 0.6 | 99.5 ×10⁻⁶ cm/s |  |  |  |  |  | 
Cn1cnnc1C1(F)CCN(c2c(C#N)cc(C(C)(F)F)nc2-c2ccc(F)nc2)CC1 [Example 34] | 0.002 µM | 0.006 µM | 0.037 µM | 0.02 µM | 1.7 | 23 ×10⁻⁶ cm/s |  |  |  |  |  | 
Cn1cnnc1C1(F)CCN(c2c(C#N)cc(C(C)(F)F)nc2-c2cnc3nn(C(C)(C)C)cc3c2)CC1 [Example 32] | 0.001 µM | 0.001 µM | 0.004 µM | 0.021 µM | 8.2 | 8.2 ×10⁻⁶ cm/s |  |  |  |  |  | 
Cn1cnnc1C1(F)CCN(c2c(C#N)ccnc2-c2cccnc2)CC1 [Example 19] | 0.018 µM | 0.062 µM | 2.19 µM | 0.41 µM | 2.6 | 11 ×10⁻⁶ cm/s |  |  |  |  |  | 
Cn1cnnc1C1(F)CCN(c2c(C#N)cc(C(F)(F)F)nc2-c2cnc3nc(C(C)(C)C)nn3c2)CC1 [Example 11] | 0.003 µM | 0.003 µM | 0.047 µM | 0.029 µM | 14.9 | 4.3 ×10⁻⁶ cm/s |  |  |  |  |  | 
Nc1nnc(C2CCN(c3ncccc3-c3ccc(F)nc3)CC2)s1 [Compound 1095] |  |  |  |  |  |  | 68 ×10⁻⁶ cm/s | 0.5 |  |  |  | 
Cn1cnnc1C1CCN(c2ncccc2-c2cccnc2)CC1 [SEN180, reference compound] |  |  |  |  |  |  | 4.2 ×10⁻⁶ cm/s |  |  |  |  | 
Nc1ncc(C2CCN(c3ncccc3-c3ccc(F)nc3)CC2)s1 [Compound 1094] |  |  |  |  |  |  | 73 ×10⁻⁶ cm/s | 1 |  |  |  | 
Cn1cnnc1C1CCN(S(=O)(=O)c2cccc(Nc3ccc(OCc4ccccc4)nc3)c2)CC1 [Compound 23] |  |  |  |  |  |  |  |  | > 10 µM | > 10 µM |  | 
Cn1cnnc1C1CCN(c2ncccc2-c2ccc(F)nc2)CC1 [SEN177, reference compound] |  |  |  |  |  |  | 11 ×10⁻⁶ cm/s |  |  |  | 1.36 µM | 0.214 µM
